How the values were obtained:
[1] = target: T1, long form of human GPR120 (Homo sapiens, UniProt Q5NUL3); assay: Human GPR120 DiscoveRx PathHunter beta-arrestin assay, Procedure β-arrestin A; assay type: cell-based; settings: PathHunter CHO-K1 GPR120 β-Arrestin cells, 3000 cells per well; read-out: hGPR120 β-arrestin A EC50
T1 construct: host or cells: PathHunter CHO-K1 GPR120 β-Arrestin Cell Line
T1 sequence (Q5NUL3 1-377 isoform Q5NUL3-1): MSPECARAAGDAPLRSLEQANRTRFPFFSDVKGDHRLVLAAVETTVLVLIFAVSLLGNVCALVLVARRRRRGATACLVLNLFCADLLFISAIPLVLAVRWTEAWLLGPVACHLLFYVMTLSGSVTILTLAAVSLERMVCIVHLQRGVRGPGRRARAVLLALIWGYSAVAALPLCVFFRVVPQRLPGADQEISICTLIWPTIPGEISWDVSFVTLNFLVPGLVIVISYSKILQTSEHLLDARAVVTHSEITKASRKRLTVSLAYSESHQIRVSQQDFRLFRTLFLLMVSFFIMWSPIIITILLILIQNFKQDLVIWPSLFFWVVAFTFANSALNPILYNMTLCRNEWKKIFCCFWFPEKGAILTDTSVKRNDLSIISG
Excerpt: The binding of an agonist (medium/long chain fatty acids or small molecule agonists) to the G-protein-coupled receptor GPR120 activates phospholipase C, leading to release of intracellular Ca^+2 through the generation of inositol 1,4,5-trisphosphate (InsP3 or IP3). GPR120 activation can also trigger intracellular signaling via recruitment of Beta-Arrestin. In the present method, agonist-induced activation of the human GPR120 receptor is monitored through the use of PathHunter CHO-K1 GPR120 Beta-Arrestin Cell Line engineered by DiscoveRx, as detailed below. The cell lines are designed to co-express both the ProLink/Enzyme Donor (PK)-tagged GPCR and the Enzyme […] (EA)-tagged Beta-Arrestin fusion proteins. Upon GPR120 receptor stimulation/activation, the EA-tagged Beta-Arrestin portion is translocated to the tagged receptor, where the two enzyme fragments are brought within close proximity. Under these conditions, these fragments can interact and form an active Beta-gal enzyme complex through Enzyme Fragment Complementation (EFC). […] This in vitro assay therefore serves to assess compound agonist activity of the GPR120.
In Procedure β-arrestin A, the cell used were PathHunter CHO-K1 GPR120 β-Arrestin Cell Line, expressing the long form of human GPR120 (Genbank accession number NM_181745), with 3000 cells per well.
The selected CHO-K1 GPR120 β-Arrestin cells were cultured in Ham's F12 media supplemented with 10% fetal bovine serum (FBS), 1% Glutamine, 1×p/s, 800 μg/mL G418 and 300 μg/mL Hygromycin B (for selection). Cell stocks were maintained and grown in a sub-confluent state using standard cell culture procedures. The day before the experiment, the cells were harvested with non-enzymatic cell dissociation buffer and re-suspended in complete growth media at the desired concentration. […] The seeded plates were incubated overnight at 37° C.
On the day of the experiment, the Assay Buffer containing (a) HBSS with Ca^++ and Mg^++, (b) 20 mM HEPES, and (c) 0.1% BSA stabilizer (pH 7.4) was prepared. The growth medium was gently removed from the cell plates and 20 μL of Assay Buffer added to each well. The plate was then incubated at 37° C. for 60 min. […] Five μL of compound dilution was then added to each well and the plate incubated at 37° C. for 90 min. The detection reagents were prepared according to the manufacture's instruction. Twelve μL of the detection reagents were added to each well and the plate incubated at room temperature for 60 min.
The % activity relative to the positive control was calculated using the following equation:
The Fitting Equation was: Y=Bottom+(Top-Bottom)/(1+10^((Log EC50−X)*HillSlope)), where X is the log of the concentration and Y is the response.

Human GPR120 short form = target: T2, Human GPR120 short form (Homo sapiens, UniProt Q5NUL3); assay: Human GPR120 calcium flux assay, Procedure Calcium A; assay type: cell-based; settings: HEK-293 cells, FLIPR, 2500 cells/well; read-out: GPR120 Ca2+ Assay A EC50
T2 construct: expressed in transfected cells
T2 sequence (Q5NUL3 1-361): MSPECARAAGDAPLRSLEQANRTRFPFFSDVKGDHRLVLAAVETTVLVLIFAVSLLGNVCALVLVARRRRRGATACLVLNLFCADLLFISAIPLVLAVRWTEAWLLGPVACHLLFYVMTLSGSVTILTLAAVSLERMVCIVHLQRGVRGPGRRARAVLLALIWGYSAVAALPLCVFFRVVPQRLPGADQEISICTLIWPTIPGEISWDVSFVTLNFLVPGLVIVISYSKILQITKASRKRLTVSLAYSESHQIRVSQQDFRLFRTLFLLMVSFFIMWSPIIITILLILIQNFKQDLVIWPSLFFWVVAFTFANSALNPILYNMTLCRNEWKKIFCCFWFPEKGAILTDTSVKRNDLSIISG
Experimental: These cells are first loaded with the Ca^+2 sensitive dye, Fluo-4 NR. Upon stimulation, intracellular released Ca^+2 can bind to the dye and alter its fluorescence intensity. This increase in fluorescence signal, and thus the flux in intracellular [Ca^2+], is detected and quantitated by fluorescence imaging using a FLIPR reader. The effect of the agonist is measured as a function of concentration and used to calculate an EC50 based upon a response curve.
In this procedure 2500 cells/well were employed.
A Human GPR120 clone (Genbank accession number NM_001195755.1) was placed into the pcDNA3.1 mammalian expression vector carrying the neomycin resistance gene. A stable mammalian cell was generated by placing the above clone into a HEK293 background. […] Cells were split 2 times a week to keep the cells in the log-phase growth.
In preparation for the assay, HEK cells stably transfected with Human GPR120 (2.5K cells per well in 25 uL growth medium) were seeded into 384-well plates and then incubated overnight (37° C., 5% CO2). The next day, the media was changed to 20 μL assay buffer and the cell starved for 1 h at 37° C. The dye loading solution (2× dye) was prepared using 10 mL assay buffer, 100 μL of 250 mM probenecid, 1 bottle of Component A, and 20 μl of dye in DMSO. Twenty μL of the 2× dye loading buffer was then added to each well. The plates were incubated at 37° C. for 30 min, then at room temperature for an additional 15 minutes, before performing the assay on FLIPR.
The assay was performed on a FLIPR plate reader using the following parameters. Baseline was read for 10 seconds at 1 sec intervals. The program was set to transfer 10 μL of ligand from compound plate to cell plate after baseline reading. Aspiration was executed at: 10 μL/sec speed, 4.6 μL height; Dispensing was executed at: 30 μL/sec speed, 45 μL height. After compound addition, each well was read for 300 sec, with measurements collected at 1 sec intervals.
The kinetic data from the FLIPR was based upon a 5 minute window for data collection. The fluorescence of each sample well was used for individual calculations of a normalized RFU value, which was defined as maximum response minus the minimum response. […] The Fitting Equation was: Y=Bottom+(Top-Bottom)/(1+10^((Log EC50−X)*HillSlope)), where X is the log of the concentration and Y is the response.

C57bl/6J Mice = assay: GPR120 C57bl6 mouse IPGTT; assay type: in vivo; settings: dosed 30 min prior to glucose IP 1.5 g/kg
Experimental: (§1) Male, C57bl/6J Mice were ordered in at 8 weeks of age from Jackson Labs. Individual mice weighed anywhere in the range of 25-30 grams on study day. The mice were fasted, with removal of food occurring at 7 am on the morning of the study. Animals were moved into the room at 10:00 am, to give them time to acclimate. Glucose (insulin syringes) was drawn up either the night before or the morning of the study. Glucose was dosed (IP) at 1.5 g/kg at 7.5 ml/kg (20% glucose straight TEKNOVA, 250 ml sterile bottle w/ catalogue number G0525). Test compounds were kept spinning and were only drawn into the syringes prior to study commencement. Animals were bled via tail snip to determine basal glucose levels prior to dosing of treatments. An Ascensia BREEZE Blood Glucose Monitoring System by Bayer (using unique 10-test disks) was used for determining glucose levels. The bleeds started at approximately 12:45 pm and dosing started, at 1-minute intervals, immediately after. All groups were dosed 30 minutes prior to glucose administration at a dose volume of 10 ml/kg (the dose volume was calculated separately for each individual animal). Thirty minutes after the first dose animals were bled again for a second baseline, or T=0, and immediately dosed with glucose via an i.p. injection. The exact dose volume for glucose was also calculated separately for each individual animal. Glucose measurements were taken at −30 min prior to compound dose, at t=0 (immediately prior to glucose dose), and at 15, 30, 45, 60, 90 min post glucose dose.
(§2) Glucose values were entered into an Excel sheet and graphed in GraphPad Prism. The following were calculated from Prism: Change from −30 to 0 BSLN Glucose, Raw Glucose AUC −30 to 90 min, Delta Glucose AUC −30 to 90 min, Raw Glucose AUC 0 to 90 min, Delta Glucose AUC 0 to 90 min.

C57b16 mouse = C57b16 mouse OGTT; assay type: in vivo; settings: dosed 30 min prior to glucose PO 3 g/kg
Experimental: as §1, §2
The assay design is the same as that described above for the C57b16 mouse IPGTT. The difference is that glucose was dosed PO at 3 g/kg, 7.5 ml/kg of 40% glucose.

EC50 [1]	EC50 (Human GPR120 short form)	SMILES	C57 IPGTT 3 mg/kg (C57bl/6J Mice)	C57 OGTT 3 mg/kg (C57b16 mouse)	C57 IPGTT 10 mg/kg (C57bl/6J Mice)
209 nM	101 nM	CCc1ccc(-c2cc(F)sc2COc2c(F)cc(CCC(=O)O)cc2F)cc1 [Cpd 7]			
		COc1ccc(-c2csc(C(F)(F)F)c2COc2c(F)cc(CCC(=O)O)cc2F)cn1 [Cpd 42, 3-(3,5-difluoro-4-((4-(6-methoxypyridin-3-yl)-2-(trifluoromethyl)thiophen-3-yl)methoxy)phenyl)propanoic acid]	−14	−44	
		OCCCc1cc(F)c(OCc2c(-c3ccc(Cl)cc3)csc2C(F)(F)F)c(F)c1 [Cpd 46, 3-(4-[[4-(4-chlorophenyl)-2-(trifluoromethyl)thiophen-3-yl]methoxy]-3,5-difluorophenyl)propan-1-ol]	−26	−49	−75
		CCc1ccc(-c2snc(Cl)c2COc2ccc(CCC(=O)O)c(C)c2C)cc1 [Cpd 85, 3-(4-[[3-chloro-5-(4-ethylphenyl)-1,2-thiazol-4-yl]methoxy]-2,3-dimethylphenyl)propanoic acid]	−29	−49	−48
		OCCCc1cc(F)c(OCc2c(-c3ccc(Cl)cc3)nsc2C(F)(F)F)c(F)c1 [Cpd 100, 3-(4-[[3-(4-chlorophenyl)-5-(trifluoromethyl)-1,2-thiazol-4-yl]methoxy]-3,5-difluorophenyl)propan-1-ol]		−39	−42
		Cc1c(CCC(=O)O)ccc(OCc2c(-c3ccc(Cl)cc3)nsc2C(F)(F)F)c1C [Cpd 142, 3-(4-((3-(4-chlorophenyl)-5-(trifluoromethyl)isothiazol-4-yl)methoxy)-2,3-dimethylphenyl)propanoic acid]	−34	−49	−61
116 nM	200 nM	O=C(O)CCc1cc(F)c(OCc2c(-c3ccc(C4CC4)cc3)nsc2C(F)(F)F)c(F)c1 [Cpd 160, 3-(4-{[3-(4-Cyclopropylphenyl)-5-(trifluoromethyl)isothiazol-4-yl]methoxy}-3,5-difluorophenyl)propanoic acid]			
210 nM	690 nM	CCc1ccc(-c2nsc(C(F)(F)F)c2COc2c(F)cc([C@@H]3C[C@H]3CO)cc2F)cc1 [Cpd 219, [(1R,2R)-2-(4-{[3-(4-Ethylphenyl)-5-(trifluoromethyl)isothiazol-4-yl]methoxy}-3,5-difluorophenyl)cyclopropyl]methanol]			

— patent publication US10118922B2 (Janssen Pharmaceutica NV, priority 2013, dated 2018)
